Test results: US20050170392A1, “OAT3 transporters expressed in blood brain barrier cells” (priority 2004, published 2005)

Tests used:
OAT3 = molecular target: T1, OAT3 (Homo sapiens, UniProt Q8TCC7); conditions: cited from earlier work
T1 sequence (Q8TCC7 1-542): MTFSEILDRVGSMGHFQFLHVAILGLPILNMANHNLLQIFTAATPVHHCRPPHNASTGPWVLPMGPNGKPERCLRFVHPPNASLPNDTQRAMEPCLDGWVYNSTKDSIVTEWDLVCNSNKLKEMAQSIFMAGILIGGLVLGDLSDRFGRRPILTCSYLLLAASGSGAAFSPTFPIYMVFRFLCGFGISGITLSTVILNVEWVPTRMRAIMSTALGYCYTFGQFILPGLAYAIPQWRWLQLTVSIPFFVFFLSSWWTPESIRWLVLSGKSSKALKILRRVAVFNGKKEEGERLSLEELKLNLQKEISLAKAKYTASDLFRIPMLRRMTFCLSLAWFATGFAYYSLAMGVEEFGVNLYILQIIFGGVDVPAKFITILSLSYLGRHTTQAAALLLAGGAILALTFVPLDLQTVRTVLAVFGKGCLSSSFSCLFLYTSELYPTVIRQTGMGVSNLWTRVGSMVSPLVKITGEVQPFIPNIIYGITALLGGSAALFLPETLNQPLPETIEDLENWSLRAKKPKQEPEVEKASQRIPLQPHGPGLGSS

PgP = molecular target: T2, PgP (Homo sapiens, UniProt P08183); assay: Cellular transwell monolayer efflux assay, MDCK cells transfected with TREx-PgP; type: in vitro ADME
T2 construct: expressed in transfected cells; host or cells: MDCK cells
T2 sequence (P08183 whole entry): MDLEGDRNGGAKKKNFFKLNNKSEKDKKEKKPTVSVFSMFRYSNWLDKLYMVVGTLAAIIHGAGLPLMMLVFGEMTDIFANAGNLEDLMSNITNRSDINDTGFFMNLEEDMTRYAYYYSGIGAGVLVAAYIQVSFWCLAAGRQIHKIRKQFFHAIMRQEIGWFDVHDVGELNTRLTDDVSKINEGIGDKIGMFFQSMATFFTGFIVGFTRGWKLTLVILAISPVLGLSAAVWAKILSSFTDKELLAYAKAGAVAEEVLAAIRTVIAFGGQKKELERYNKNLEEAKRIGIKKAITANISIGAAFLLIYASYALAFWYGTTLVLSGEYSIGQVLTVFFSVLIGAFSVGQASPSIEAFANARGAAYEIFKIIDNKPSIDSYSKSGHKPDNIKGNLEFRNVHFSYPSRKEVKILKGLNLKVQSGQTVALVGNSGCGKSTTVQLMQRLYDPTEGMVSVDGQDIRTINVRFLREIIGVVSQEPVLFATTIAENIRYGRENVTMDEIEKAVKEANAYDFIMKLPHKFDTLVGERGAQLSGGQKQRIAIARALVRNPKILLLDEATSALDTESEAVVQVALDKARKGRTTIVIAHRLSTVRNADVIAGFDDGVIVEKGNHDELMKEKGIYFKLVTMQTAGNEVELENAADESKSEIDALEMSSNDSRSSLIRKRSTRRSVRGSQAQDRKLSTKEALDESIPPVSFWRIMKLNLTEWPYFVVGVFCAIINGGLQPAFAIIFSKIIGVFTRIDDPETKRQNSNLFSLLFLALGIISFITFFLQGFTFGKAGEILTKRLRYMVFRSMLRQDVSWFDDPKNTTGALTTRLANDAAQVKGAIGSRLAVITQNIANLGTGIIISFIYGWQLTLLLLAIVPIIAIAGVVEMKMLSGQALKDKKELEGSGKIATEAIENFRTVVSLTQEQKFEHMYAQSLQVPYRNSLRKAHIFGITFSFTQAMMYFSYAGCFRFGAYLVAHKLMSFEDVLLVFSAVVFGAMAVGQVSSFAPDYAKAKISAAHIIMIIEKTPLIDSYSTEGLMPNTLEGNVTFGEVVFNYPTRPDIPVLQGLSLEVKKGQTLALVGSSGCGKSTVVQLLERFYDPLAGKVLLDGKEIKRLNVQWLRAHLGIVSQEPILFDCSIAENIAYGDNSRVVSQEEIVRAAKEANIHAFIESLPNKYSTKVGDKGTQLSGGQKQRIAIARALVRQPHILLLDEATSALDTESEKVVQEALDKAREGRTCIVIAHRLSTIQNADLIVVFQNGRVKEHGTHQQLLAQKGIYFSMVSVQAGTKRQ
Protocol: A third type of efflux transporter assay is the cellular transwell monolayer efflux assay. […] The cells form a polarized monolayer. The transwell dishes have apical and basolateral chambers that are separated by the filter membrane on which the polarized monolayer is situated. Assays are performed by placing a test compound in either the apical or basolateral chamber, followed by sampling the opposite chamber after a predetermined period of time such as 60-120 minutes and measuring the amount of the test compound. The test compound can be measured by methods such as radiolabel detection or LC-MS-MS analysis. Assays are performed in the presence and absence of an efflux transporter inhibitor or competitor. Efflux transporter inhibitors or competitors increase apical to basolateral transport and decrease basolateral to apical transport of compounds that are efflux transporter substrates. Apparent permeability (Papp) of test compounds is measured. […] Test compounds that generate ratios between 1.5 and 2.0 require additional testing to determine if they are efflux transporter substrates.
MDCK cells transfected with the tetracycline-inducible TREx-PgP expression vector were seeded on polycarbonate filter membranes in transwell dishes and grown for 3-5 days, yielding a polarized monolayer with tight junctions between cells. […] The left set of bars depicts apical to basolateral transport, while the right set of bars depicts basolateral to apical transport.

[1] = 2.5 nM 3H-vinblastine, in the presence of 250 μM verapamil versus absence, FIG. 6

apical to basolateral transport (PgP; [1])	basolateral to apical transport (PgP; [1])	efflux transporter substrate status (PgP; conclusion from transwell transport with and without verapamil)	SMILES	Reported Affinity for OAT3 (OAT3)
			CC1(C)S[C@@H]2[C@H](NC(=O)Cc3ccccc3)C(=O)N2[C@H]1C(=O)O [Benzylpennicillin]	0.3 mM
			C[C@@H]1Cc2c(Cl)cc(C(=O)N[C@@H](Cc3ccccc3)C(=O)O)c(O)c2C(=O)O1 [Ochratoxin A]	0.05 mM
			C[C@]12CC[C@@H]3c4ccc(OS(=O)(=O)O)cc4CC[C@H]3[C@@H]1CCC2=O [Estrone-3-sulphate]	0.04 mM
strongly increased	strongly decreased	substrate of PgP	CC[C@]1(O)C[C@@H]2CN(CCc3c([nH]c4ccccc34)[C@@](C(=O)OC)(c3cc4c(cc3OC)N(C)[C@H]3[C@@](O)(C(=O)OC)[C@H](OC(C)=O)[C@]5(CC)C=CCN6CC[C@]43[C@@H]65)C2)C1 [^3H-vinblastine, vinblastine]	
			CCCN(CCC)S(=O)(=O)c1ccc(C(=O)O)cc1 [Probenecid]	0.05 mM
